# Measured values reported in patent EP1247803A2, “Indolinone compounds suitable for modulation of protein kinases” (Sugen, Inc., priority 1996, dated 1998).
# Tests used:
# FLK-1 receptor = target: T1, FLK-1 receptor (Mus musculus, UniProt P35918); test: FLK-1 ELISA (kinase activity of the FLK-1 receptor in FLK-1/NIH3T3 cells, VEGF stimulated); assay type: cell-based; parameters: concentration or dose not given beside the values
# T1 construct: expressed in transfected cells; host or cells: NIH3T3 C7#3
# Summary of the method: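 FLK-1-expressing NIH3T3 C7#3 cells, starved overnight in 0.1% FBS medium, were treated with compounds at a 1:200 final dilution (0.5% DMSO) for 2 h at 37 °C, with VEGF stimulation. FLK-1 kinase activity was read by ELISA on anti-rabbit IgG plates using affinity-purified anti-FLK-1 antiserum.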
# PDGF-R = PDGF-R (Homo sapiens, UniProt P09619); test: PDGF-R ELISA; assay type: cell-based
# Text: A PDGF-R ELISA is described in International Patent Publication No. WO 96/40116, published December 19, 1996 by Tang et al.
# Sequence of PDGF-R (P09619 33-1106, species assumed): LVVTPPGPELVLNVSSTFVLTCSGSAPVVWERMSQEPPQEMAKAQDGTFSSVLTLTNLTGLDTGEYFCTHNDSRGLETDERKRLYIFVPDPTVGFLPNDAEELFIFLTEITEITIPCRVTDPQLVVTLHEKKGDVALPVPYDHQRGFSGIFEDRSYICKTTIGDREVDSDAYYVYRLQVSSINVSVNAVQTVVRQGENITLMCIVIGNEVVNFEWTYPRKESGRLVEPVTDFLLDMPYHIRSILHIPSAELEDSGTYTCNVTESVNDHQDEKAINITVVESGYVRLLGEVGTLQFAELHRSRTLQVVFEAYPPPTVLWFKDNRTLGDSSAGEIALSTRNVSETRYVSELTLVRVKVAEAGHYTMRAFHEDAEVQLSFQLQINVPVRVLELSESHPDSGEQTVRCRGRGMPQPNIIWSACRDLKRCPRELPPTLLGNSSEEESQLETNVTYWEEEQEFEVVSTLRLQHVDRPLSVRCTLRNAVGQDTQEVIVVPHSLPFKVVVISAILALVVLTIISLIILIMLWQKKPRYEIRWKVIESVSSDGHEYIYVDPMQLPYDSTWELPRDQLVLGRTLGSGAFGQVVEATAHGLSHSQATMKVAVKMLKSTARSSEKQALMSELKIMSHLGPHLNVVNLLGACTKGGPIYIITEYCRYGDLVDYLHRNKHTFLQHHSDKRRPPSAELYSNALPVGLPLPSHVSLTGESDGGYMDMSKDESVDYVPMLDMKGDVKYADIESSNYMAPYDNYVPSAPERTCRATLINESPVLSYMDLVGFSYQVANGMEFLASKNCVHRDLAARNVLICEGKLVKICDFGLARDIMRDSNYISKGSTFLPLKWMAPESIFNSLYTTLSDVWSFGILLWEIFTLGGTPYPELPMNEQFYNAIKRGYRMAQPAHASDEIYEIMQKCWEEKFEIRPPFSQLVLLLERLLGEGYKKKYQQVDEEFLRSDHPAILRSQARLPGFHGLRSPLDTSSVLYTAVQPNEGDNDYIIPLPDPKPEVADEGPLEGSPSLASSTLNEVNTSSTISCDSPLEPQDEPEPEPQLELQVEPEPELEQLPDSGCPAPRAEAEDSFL
# T1 sequence (P35918 20-1345): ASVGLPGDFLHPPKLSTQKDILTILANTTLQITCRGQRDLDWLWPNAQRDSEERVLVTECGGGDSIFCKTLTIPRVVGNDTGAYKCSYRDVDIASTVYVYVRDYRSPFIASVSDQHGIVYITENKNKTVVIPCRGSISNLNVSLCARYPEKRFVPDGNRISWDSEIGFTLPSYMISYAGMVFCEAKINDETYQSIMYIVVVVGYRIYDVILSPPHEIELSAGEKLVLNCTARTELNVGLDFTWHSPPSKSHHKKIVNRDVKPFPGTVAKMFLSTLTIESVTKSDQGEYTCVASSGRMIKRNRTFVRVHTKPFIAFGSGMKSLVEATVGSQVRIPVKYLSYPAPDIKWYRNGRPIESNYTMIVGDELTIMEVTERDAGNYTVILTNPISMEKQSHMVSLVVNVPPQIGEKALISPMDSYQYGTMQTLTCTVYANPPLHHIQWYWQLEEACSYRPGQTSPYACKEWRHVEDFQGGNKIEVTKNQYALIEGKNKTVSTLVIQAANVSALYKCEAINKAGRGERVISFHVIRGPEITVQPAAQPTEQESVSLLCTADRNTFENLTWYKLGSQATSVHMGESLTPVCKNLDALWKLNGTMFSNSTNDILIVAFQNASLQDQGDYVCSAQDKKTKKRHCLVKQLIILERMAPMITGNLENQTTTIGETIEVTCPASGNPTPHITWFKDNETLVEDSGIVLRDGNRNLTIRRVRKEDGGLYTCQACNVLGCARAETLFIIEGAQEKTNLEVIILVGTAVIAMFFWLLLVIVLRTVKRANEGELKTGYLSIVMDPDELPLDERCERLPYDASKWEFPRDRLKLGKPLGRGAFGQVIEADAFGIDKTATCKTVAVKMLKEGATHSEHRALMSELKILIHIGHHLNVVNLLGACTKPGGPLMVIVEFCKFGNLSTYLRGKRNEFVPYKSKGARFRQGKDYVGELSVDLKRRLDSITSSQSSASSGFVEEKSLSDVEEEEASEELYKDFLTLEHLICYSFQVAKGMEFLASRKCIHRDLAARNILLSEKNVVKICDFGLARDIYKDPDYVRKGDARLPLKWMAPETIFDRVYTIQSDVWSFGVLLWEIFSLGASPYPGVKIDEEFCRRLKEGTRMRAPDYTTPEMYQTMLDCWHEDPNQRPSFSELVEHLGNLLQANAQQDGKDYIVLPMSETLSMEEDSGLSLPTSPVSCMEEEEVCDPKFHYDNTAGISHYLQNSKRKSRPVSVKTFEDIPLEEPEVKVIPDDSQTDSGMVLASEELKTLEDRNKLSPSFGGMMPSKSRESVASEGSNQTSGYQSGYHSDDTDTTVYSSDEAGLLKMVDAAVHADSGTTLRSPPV
Compound,Fik Kinase %Inhibition (FLK-1 receptor) [%],PDGF Kinase %Inhibition (PDGF-R) [%]
Cc1cc(C=C2C(=O)Nc3ccc(Br)c(C)c32)ccc1O [10723/C06],17.8,26.3
Cc1c(Br)ccc2c1C(=Cc1ccccc1Br)C(=O)N2 [10723/C07],20.9,27.6
Cc1c(Br)ccc2c1C(=Cc1ccc(O)cc1O)C(=O)N2 [10723/C08],-35.5,29.0
COc1ccc(C=C2C(=O)Nc3ccc(Br)c(C)c32)c(O)c1 [10723/C09],-22.3,62.3
Cc1c(Br)ccc2c1C(=Cc1cccc(Br)c1)C(=O)N2 [10723/C10],9.5,25.6
Cc1c(Br)ccc2c1C(=Cc1cc(C(C)(C)C)cc(C(C)(C)C)c1O)C(=O)N2 [10723/C11],9.5,8.9
CNS(=O)(=O)c1ccc2c(c1)C(=Cc1ccc(O)c(O)c1O)C(=O)N2 [10723/D02],2.0,22.1
CNS(=O)(=O)c1ccc2c(c1)C(=Cc1cccc(OC)c1O)C(=O)N2 [10723/D03],-14.7,8.2
CNS(=O)(=O)c1ccc2c(c1)C(=Cc1cc(O)c(O)c(Br)c1)C(=O)N2 [10723/D04],15.2,31.8
CNS(=O)(=O)c1ccc2c(c1)C(=Cc1ccc(OC(C)=O)c(OC(C)=O)c1)C(=O)N2 [10723/D05],-6.1,8.2
CNS(=O)(=O)c1ccc2c(c1)C(=Cc1ccc(O)c(C)c1)C(=O)N2 [10723/D06],17.6,6.2
CNS(=O)(=O)c1ccc2c(c1)C(=Cc1ccccc1Br)C(=O)N2 [10723/D07],15.8,16.6
CNS(=O)(=O)c1ccc2c(c1)C(=Cc1ccc(O)cc1O)C(=O)N2 [10723/D08],-4.5,31.1
CNS(=O)(=O)c1ccc2c(c1)C(=Cc1ccc(OC)cc1O)C(=O)N2 [10723/D09],50.4,21.4
CNS(=O)(=O)c1ccc2c(c1)C(=Cc1cccc(Br)c1)C(=O)N2 [10723/D10],6.5,21.4
CNS(=O)(=O)c1ccc2c(c1)C(=Cc1cc(C(C)(C)C)cc(C(C)(C)C)c1O)C(=O)N2 [10723/D11],14.8,24.9
O=C1Nc2ccc(S(=O)(=O)Nc3ccc(C(F)(F)F)cc3)cc2C1=Cc1ccc(O)c(O)c1O [10723/E02],8.1,46.4
COc1cccc(C=C2C(=O)Nc3ccc(S(=O)(=O)Nc4ccc(C(F)(F)F)cc4)cc32)c1O [10723/E03],8.7,47.1
O=C1Nc2ccc(S(=O)(=O)Nc3ccc(C(F)(F)F)cc3)cc2C1=Cc1cc(O)c(O)c(Br)c1 [10723/E04],30.7,36.0

Compound,Fik Kinase %Inhibition (FLK-1 receptor) [%],PDGF Kinase %Inhibition (PDGF-R) [%]
CC(=O)Oc1ccc(C=C2C(=O)Nc3ccc(S(=O)(=O)Nc4ccc(C(F)(F)F)cc4)cc32)cc1OC(C)=O [10723/E05],8.9,-4.9
Cc1cc(C=C2C(=O)Nc3ccc(S(=O)(=O)Nc4ccc(C(F)(F)F)cc4)cc32)ccc1O [10723/E06],19.3,18.6
O=C1Nc2ccc(S(=O)(=O)Nc3ccc(C(F)(F)F)cc3)cc2C1=Cc1ccccc1Br [10723/E07],17.4,14.5
O=C1Nc2ccc(S(=O)(=O)Nc3ccc(C(F)(F)F)cc3)cc2C1=Cc1ccc(O)cc1O [10723/E08],-0.4,26.3
COc1ccc(C=C2C(=O)Nc3ccc(S(=O)(=O)Nc4ccc(C(F)(F)F)cc4)cc32)c(O)c1 [10723/E09],7.9,22.1
O=C1Nc2ccc(S(=O)(=O)Nc3ccc(C(F)(F)F)cc3)cc2C1=Cc1cccc(Br)c1 [10723/E10],5.2,44.3
CC(C)(C)c1cc(C=C2C(=O)Nc3ccc(S(=O)(=O)Nc4ccc(C(F)(F)F)cc4)cc32)c(O)c(C(C)(C)C)c1 [10723/E11],8.9,32.5
O=C1Nc2ccc(S(=O)(=O)N3CCOCC3)cc2C1=Cc1ccc(O)c(O)c1O [10723/F02],10.3,1.3
COc1cccc(C=C2C(=O)Nc3ccc(S(=O)(=O)N4CCOCC4)cc32)c1O [10723/F03],4.4,1.3
O=C1Nc2ccc(S(=O)(=O)N3CCOCC3)cc2C1=Cc1cc(O)c(O)c(Br)c1 [10723/F04],12.3,21.4
CC(=O)Oc1ccc(C=C2C(=O)Nc3ccc(S(=O)(=O)N4CCOCC4)cc32)cc1OC(C)=O [10723/F05],-6.4,-7.7
O=C1Nc2ccc(CCCl)cc2C1=Cc1ccc(O)c(O)c1O [10723/G02],-1.6,13.8
COc1cccc(C=C2C(=O)Nc3ccc(CCCl)cc32)c1O [10723/G03],4.3,6.2
O=C1Nc2ccc(CCCl)cc2C1=Cc1cc(O)c(O)c(Br)c1 [10723/G04],8.7,21.4
CC(=O)Oc1ccc(C=C2C(=O)Nc3ccc(CCCl)cc32)cc1OC(C)=O [10723/G05],-9.4,2.0
Cc1cc(C=C2C(=O)Nc3ccc(CCCl)cc32)ccc1O [10723/G06],14.1,-0.8
O=C1Nc2ccc(CCCl)cc2C1=Cc1ccccc1Br [10723/G07],14.2,-5.6
O=C1Nc2ccc(CCCl)cc2C1=Cc1ccc(O)cc1O [10723/G08],-22.9,7.5
COc1ccc(C=C2C(=O)Nc3ccc(CCCl)cc32)c(O)c1 [10723/G09],-1.8,-2.9
